{"source": "ChEMBL document CHEMBL5620412", "about": "“Discovery of benzofuran-2-carboxylic acid derivatives as lymphoid tyrosine phosphatase (LYP) inhibitors for cancer immunotherapy” (Eur J Med Chem, 2023)", "data": [{"molecular_target": "T1, Tyrosine-protein phosphatase non-receptor type 22 (Homo sapiens, UniProt Q9Y2R2)", "T1 sequence (Q9Y2R2 whole entry)": "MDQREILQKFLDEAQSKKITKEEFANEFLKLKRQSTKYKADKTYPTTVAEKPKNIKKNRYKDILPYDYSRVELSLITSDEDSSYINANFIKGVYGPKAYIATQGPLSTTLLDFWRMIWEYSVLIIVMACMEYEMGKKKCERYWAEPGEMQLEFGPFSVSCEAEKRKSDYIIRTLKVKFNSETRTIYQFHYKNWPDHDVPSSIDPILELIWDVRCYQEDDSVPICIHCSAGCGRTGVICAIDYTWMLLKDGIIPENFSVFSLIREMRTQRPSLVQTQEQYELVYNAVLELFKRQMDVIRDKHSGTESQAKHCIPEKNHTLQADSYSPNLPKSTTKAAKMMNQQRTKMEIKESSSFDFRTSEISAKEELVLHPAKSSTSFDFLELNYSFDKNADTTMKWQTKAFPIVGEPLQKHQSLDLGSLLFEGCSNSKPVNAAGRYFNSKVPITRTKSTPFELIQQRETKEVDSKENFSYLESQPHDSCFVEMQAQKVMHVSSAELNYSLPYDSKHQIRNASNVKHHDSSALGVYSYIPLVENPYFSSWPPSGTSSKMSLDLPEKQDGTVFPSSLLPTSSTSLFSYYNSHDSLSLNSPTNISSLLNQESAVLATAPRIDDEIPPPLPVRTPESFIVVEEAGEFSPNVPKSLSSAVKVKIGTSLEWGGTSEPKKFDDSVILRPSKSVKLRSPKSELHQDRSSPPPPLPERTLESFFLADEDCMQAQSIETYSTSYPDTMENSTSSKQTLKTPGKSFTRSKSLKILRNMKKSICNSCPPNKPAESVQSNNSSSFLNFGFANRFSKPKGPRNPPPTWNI", "assay": "Inhibition of N-terminal His-tagged LYP catalytic domain (1 to 294 residues) (unknown origin) expressed in Escherichia coli BL21 (DE3) cells using pNPP as substrate by absorbance based plate reader analysis", "units": {"IC50": "µM"}, "values": [{"smiles": "O=C(O)c1cc2cc(N(Cc3ccc(-c4ccccc4)cc3)S(=O)(=O)c3ccc(O)c([N+](=O)[O-])c3)ccc2o1", "IC50": 18.7}, {"smiles": "CN(c1ccc2oc(C(=O)O)cc2c1)S(=O)(=O)c1ccc(Cl)cc1", "IC50": "> 20"}, {"smiles": "O=C(O)c1cc2cc(NS(=O)(=O)c3ccc(-c4ccccc4)cc3)ccc2o1", "IC50": "> 20"}, {"smiles": "O=C(O)c1cc2cc(N(Cc3ccc(-c4ccccc4)cc3)S(=O)(=O)c3ccc(Cl)nc3)ccc2o1", "IC50": 7.74}, {"smiles": "O=C(O)c1cc2cc(NS(=O)(=O)c3ccc(Cl)c([N+](=O)[O-])c3)ccc2o1", "IC50": "> 20"}, {"smiles": "O=C(O)c1cc2cc(N(Cc3ccc(-c4ccc(Cl)cc4)cc3)S(=O)(=O)c3ccc(-c4ccccc4)cc3)ccc2o1", "IC50": 4.36}, {"smiles": "CN(c1ccc2oc(C(=O)O)cc2c1)S(=O)(=O)c1ccc(-c2ccccc2)cc1", "IC50": "> 20"}, {"smiles": "O=C(O)c1cc2cc(N(Cc3ccc(-c4ccccc4)cc3)S(=O)(=O)c3ccc(Br)cc3)ccc2o1", "IC50": 7.87}, {"smiles": "O=C(O)c1cc2cc(N(Cc3ccc(Oc4ccccc4)cc3)S(=O)(=O)c3ccc(-c4ccccc4)cc3)ccc2o1", "IC50": 10.7}, {"smiles": "O=C(O)c1cc2cc(N(Cc3ccc(-c4ccc(Cl)cc4)cc3)S(=O)(=O)c3ccc(Cl)c([N+](=O)[O-])c3)ccc2o1", "IC50": 6.78}, {"smiles": "O=C(O)c1cc2cc(N(Cc3ccc(-c4ccccc4)cc3)S(=O)(=O)c3cc(Cl)c(F)cc3F)ccc2o1", "IC50": 18.7}, {"smiles": "CN(c1ccc2oc(C(=O)O)cc2c1)S(=O)(=O)c1ccc(NCCN2CCOCC2)c([N+](=O)[O-])c1", "IC50": "> 20"}, {"smiles": "CN(c1ccc2oc(C(=O)O)cc2c1)S(=O)(=O)c1ccc(Cl)c([N+](=O)[O-])c1", "IC50": "> 20"}, {"smiles": "O=C(O)c1cc2cc(N(Cc3ccc(-c4ccccc4)cc3)S(=O)(=O)c3cccc(Cl)c3)ccc2o1", "IC50": "> 20"}, {"smiles": "O=C(O)c1cc2cc(N(Cc3ccc(Oc4ccccc4)cc3)S(=O)(=O)c3ccc(Cl)c([N+](=O)[O-])c3)ccc2o1", "IC50": 5.67}, {"smiles": "CC(C)CN(c1ccc2oc(C(=O)O)cc2c1)S(=O)(=O)c1ccc(Cl)cc1", "IC50": "> 20"}, {"smiles": "O=C(O)c1cc2cc(N(Cc3cccc(Br)c3)S(=O)(=O)c3ccc(NCCOc4ccccc4)c([N+](=O)[O-])c3)ccc2o1", "IC50": 6.7}, {"smiles": "CCCCCCNc1ccc(S(=O)(=O)N(Cc2ccccc2)c2ccc3oc(C(=O)O)cc3c2)cc1[N+](=O)[O-]", "IC50": 5.03}, {"smiles": "O=C(O)c1cc2cc(N(Cc3ccccc3)S(=O)(=O)c3ccc(Cl)cc3)ccc2o1", "IC50": "> 20"}, {"smiles": "CC(C)CN(c1ccc2oc(C(=O)O)cc2c1)S(=O)(=O)c1ccc(Cl)c([N+](=O)[O-])c1", "IC50": "> 20"}, {"smiles": "O=C(O)c1cc2cc(N(Cc3ccc(-c4ccccc4)cc3)S(=O)(=O)c3ccc(-c4ccccc4)cc3)ccc2o1", "IC50": 5.07}, {"smiles": "O=C(O)c1cc2cc(N(Cc3ccccc3)S(=O)(=O)c3ccc(-c4ccccc4)cc3)ccc2o1", "IC50": "> 20"}, {"smiles": "O=C(O)c1cc2cc(NS(=O)(=O)c3ccc(Cl)cc3)ccc2o1", "IC50": "> 20"}, {"smiles": "CCCCCCNc1ccc(S(=O)(=O)N(Cc2ccc(-c3ccccc3)cc2)c2ccc3oc(C(=O)O)cc3c2)cc1[N+](=O)[O-]", "IC50": 5.56}, {"smiles": "O=C(O)c1cc2cc(N(Cc3ccc(-c4ccccc4)cc3)S(=O)(=O)c3ccc(Cl)c([N+](=O)[O-])c3)ccc2o1", "IC50": 9.34}, {"smiles": "CC(C)CN(c1ccc2oc(C(=O)O)cc2c1)S(=O)(=O)c1ccc(-c2ccccc2)cc1", "IC50": "> 20"}, {"smiles": "O=C(O)c1cc2cc(N(Cc3ccc(-c4ccccc4)cc3)S(=O)(=O)c3ccccc3Cl)ccc2o1", "IC50": 15.1}, {"smiles": "COc1ccc(-c2ccc(CN(c3ccc4oc(C(=O)O)cc4c3)S(=O)(=O)c3ccc(-c4ccccc4)cc3)cc2)cc1", "IC50": 5.47}, {"smiles": "O=C(O)c1cc2cc(N(Cc3ccccc3)S(=O)(=O)c3ccc(Cl)c([N+](=O)[O-])c3)ccc2o1", "IC50": "> 20"}, {"smiles": "O=C(O)c1cc2cc(N(Cc3ccccc3)S(=O)(=O)c3ccc(NCCOc4ccccc4)c([N+](=O)[O-])c3)ccc2o1", "IC50": 10.3}, {"smiles": "O=C(O)c1cc2cc(N(Cc3ccc(-c4ccccc4)cc3)S(=O)(=O)c3ccc(Cl)cc3)ccc2o1", "IC50": 9.04}, {"smiles": "O=C(O)c1cc2cc(N(Cc3ccc(-c4cccc(Cl)c4Cl)cc3)S(=O)(=O)c3ccc(Cl)c([N+](=O)[O-])c3)ccc2o1", "IC50": 5.91}, {"smiles": "O=C(O)c1cc2cc(N(Cc3ccc(-c4ccccc4)cc3)S(=O)(=O)c3ccc(-c4cccs4)cc3)ccc2o1", "IC50": 8.87}, {"smiles": "O=C(O)c1cc2cc(N(Cc3ccc(-c4ccco4)cc3)S(=O)(=O)c3ccc(-c4ccccc4)cc3)ccc2o1", "IC50": 7.25}]}]}
